Results reported in a melting point compilation (Tetko et al.; mined from patent text by program, amines drawn as free bases though some values may be those of a salt).

| melting point [°C] | SMILES |
| --- | --- |
| 115 to 117 | CCOC(=O)C1=CC2(CCC1S(=O)(=O)Nn1cccc1)OCCO2 (centres undefined) |
| 117 to 118 | COc1cc(NOC(C)=O)c(Cl)c(OC)c1 |
| 204 to 206 | Cn1ncnc1COc1nn2c(-c3ccccc3F)nnc2cc1-c1cccc(F)c1 |
| 130 | CCCCCCCCCCCCCCc1onc(C(=O)NN)c1O |
| 233 | O=C(Nc1nc(C(F)(F)F)co1)C1c2ccccc2Oc2c(F)cccc21 (racemic) |
| 112 | CCOC(=O)C1Cc2cc(-c3ccccc3)ccc2O1 (centres undefined) |
| 211 to 222 | O=[N+]([O-])c1ccccc1Nc1ccc(-c2ccc(Nc3ccccc3[N+](=O)[O-])cc2)cc1 |
| 88 to 90 | CCC(=O)NCC1CC1c1cccc2nc(C)cn12 (centres undefined) |
| 143 to 145 | CNc1c2c(nn1C)N(c1c(C)cc(C)cc1C)CCC2 |
| > 250 | Cc1cccc2[nH]c(=S)nc(N)c12 |
| 206 to 209 | COc1cc2c(cc1OC)N(C(N)=O)C(=O)C2 |
| 74 | Nc1ccc2oc(CCC(F)(F)F)cc2c1 |
| 123 to 127 | CCc1nc(C)ccc1OC1SCC(OC(C)=O)C(OC(C)=O)C1OC(C)=O (centres undefined) |
| 272 | Nc1ncnc2[nH]cc(-c3ccc(Oc4ccccc4)cc3)c12 |
| 115 | CCOC(=O)c1c(N2CCN(C(=O)c3cccs3)CC2)c2cccnc2n(CC(=O)c2ccccc2)c1=O |
| 157 to 160 | CCN(CC)CC1CN(Cc2cc(OC)c(OC)c(OC)c2)CCN1C(=O)C1=Cc2cc(OC)c(OC)cc2CCC1 (centres undefined) |
| 130 to 131 | CNNC(=O)c1ccc(Cl)cc1 |
| 163 to 180 | CC(=O)N1CCN(Cc2ccc(-c3cc4ncnc(Nc5ccc6[nH]ccc6c5)c4s3)cc2)CC1 |
| 194 to 195 | CN(C)C(=O)N1Cc2c(-c3noc(C4CC4)n3)ncn2-c2cccc(F)c21 |
| 143 to 146 | CCOC(=O)C(=NOC)c1noc(N)n1 |
| 69 to 73 | CCCCCCNc1nc(N)ccc1[N+](=O)[O-] |
| 89.2 to 91 | COCc1c(C(=O)OC)c2cc(OC)ccc2n1C |
| 82 to 84 | CO/C=C(/C(=O)OC)c1csc(C(=O)c2ccccc2)c1 |
| 124 | COc1c(C)cc(C)cc1CNC(=O)CCl |

| melting point [°C] | SMILES |
| --- | --- |
| 355 | O=c1[nH]c2cc(Cl)ccc2c(O)c1-n1ccccc1=O |
| 221 to 222 | CC(C)n1nc(-c2sc(NC(=O)c3ccc(CN4CCCC4)cc3)nc2-c2ccccc2)ccc1=O |
| 118 to 120 | COc1ccc(C(C)C)cc1-c1cc(-c2nnnn2CCc2ccccc2)c(OCc2ccccc2)cc1OCc1ccccc1 |
| 238 to 239 | N#Cc1cc(NC(=O)c2cc3ccccc3s2)ccc1N1CCN(CCO)CC1 |
| 192 to 193 | O=C(NS(=O)(=O)c1ccccc1)c1ccc(I)cc1 |
| 130 | O=C(Cc1ccc(Cl)nc1)Nc1ccccn1 |
| 129 to 131 | CCCOC(=O)c1c(CN2CCCCC2)nc2cc(OC)c(OC)cc2c1-c1ccc(OC)c(OC)c1 |
| 105 to 107 | CCC(=O)NCCC1CCc2ccc3nn(C)cc3c21 (centres undefined) |
| 91 to 94 | CCC(=O)N1CCC(C(=O)O)CC1 |
| 222 to 224 | O=C(Nc1c([N+](=O)[O-])cc(C(F)(F)F)cc1[N+](=O)[O-])C(F)(F)F |
| 133 to 134 | O=C(CCC(=O)N1CCC(c2ccc(Cl)cc2)CC1)c1ccc2c(c1)CNC2 |
| 117 to 118 | CCC(C)(CCCCCCC(C)(CC)C(=O)O)C(=O)O (centres undefined) |
| 172 | COC(=O)c1ccc(Cl)c(C2(O)C(=O)N(Cc3ccc(OC)cc3OC)c3ccccc32)c1 (centres undefined) |
| 194 to 195 | COCc1cc(NCc2ccccc2C)c2ccccc2n1 |
| 90 to 92 | C=C(Cn1ccnc1)c1ccccc1OCc1ccc(-c2ccccc2)cc1 |
| 157 to 158 | N#Cc1ccc(C(F)(F)F)cc1N=NN(C(=O)Nc1ccccc1)c1cc(C(F)(F)F)ccc1C#N |
| 107 to 109 | CN(CCN(O)C(N)=O)Cc1cccc(Oc2ccc(Cl)c(Cl)c2)c1 |
| 142 to 147 | CNc1cc(CC(C#N)=CNc2ccccc2)cc(NC)c1Cl |
| 140 | Cn1nc(C(F)(F)F)cc1Oc1cc(C#N)cc(Oc2cc(C(F)(F)F)nn2C)n1 |
| 182 to 184 | O=C(Nc1ccc(Cl)c(C(F)(F)F)c1)Nc1ccc(OCc2ccccc2)cc1O |
| 188 to 190 | COc1cc(OC)nc(NC(=O)N=NS(=O)(=O)C2SCCCN2C)n1 (centres undefined) |
| 224 to 228 | CCCCC(=O)Nc1nc2ccc(Cl)cc2nc1N |
| 79.5 | CC(Cn1cncn1)c1ccc(Cl)cc1Cl (centres undefined) |
| 97 to 100 | CCC1(O)C(C)=CC(=O)N1c1ccccc1 (centres undefined) |

| melting point [°C] | SMILES |
| --- | --- |
| 107 to 108 | COC(=O)C(=C1NCCCS1)[N+](=O)[O-] |
| 114 to 115 | COc1cc(-c2cc(O)c(SCCc3ccccc3)c(=O)o2)ccc1OCc1ccccc1 |
| 113 to 114 | CCOC(=O)C1=C(C)N(C(C)=O)C(c2csc(C)n2)=NC1c1cccc(C)c1 (centres undefined) |
| 156 | Cc1c2n(c3ccc(Br)cc13)CCC(Br)C2=O (centres undefined) |
| 240 | Cc1cc(-c2ccc(Cl)c(C)c2)nc(-c2cccc(-c3ccc(S(N)(=O)=O)s3)c2)n1 |
| 75 to 110 | CN(CC(=O)[C@H](Cc1ccccc1)NC(=O)NC1CCCCC1)C(=O)N1CCC[C@H]1C(=O)O |
| 145 to 147 | Cc1c(NCCNC(=O)OC(C)(C)C)c([N+](=O)[O-])c2nnnn2c1C |
| 188 to 190 | O=c1ncc(Br)cn1Cc1cccs1 |
| 215 to 218 | O=C(Nc1ccc(C(=O)N2CCc3sc(Cc4ccccn4)nc3-c3ccccc32)cc1)c1ccccc1-c1ccccc1 |
| 219 to 220 | CN1CCN(c2cc(F)cc3c(=O)cc(C(=O)Nc4ccc(N5CCN(C(=O)OC(C)(C)C)CC5)cc4)oc23)CC1 |
| 130 to 132 | CO[C@@H]1CN(c2ccc3c(=O)c(C=O)cn(-c4nccs4)c3n2)C[C@H]1NCC(=O)OC(C)(C)C (relative stereo) |
| 129 to 132 | CC1(C)Oc2cc(Cl)c(C#N)cc2C2OC21 (centres undefined) |
| 185 to 186 | O=C1COC(c2ccccc2)(c2ccccc2)CCN1Cc1ccccc1 |
| 124 to 125 | Cc1ccc(N(Cc2ccc(N(C)C)cc2)C(=O)Nc2c(C(C)C)cccc2C(C)C)cc1 |
| 250 to 251 | NS(=O)(=O)c1cc(C(=O)O)cc(OCc2ccccc2)c1Cc1ccccc1 |
| 106 to 108 | CCOCCn1cc(C2CCN(CCOc3cc(OC)ccc3C(=O)O)CC2)c2cccnc21 |
| 175 to 180 | OC(=S)CC(c1ccc(OCc2ccc3ccccc3n2)cc1)c1ccc(OCc2ccc3ccccc3n2)cc1 |
| 57 to 60 | COCCNC(=O)c1ccc2c(c1)C=CC(C)(C)O2 |
| 187 to 188 | Cc1ccn(-c2ccc(C(=O)N3Cc4ccnn4Cc4ccccc43)c(Cl)c2)n1 |
| > 250 | CC(C)(C)c1cc(-c2nnc(NC#N)s2)cc(C(C)(C)C)c1O |
| 75 to 76 | O=C(Nc1ccc2c(c1)CCN2)C(=O)N1CCC(Cc2ccccc2)CC1 |
| 138 to 140 | COCc1nc2c(N)cc(Br)cc2n1C |
| 140 | COc1cc(CC(C#N)=CNc2ccccc2)c2c(c1OC)OC(C1CC1)C=C2 (racemic) |
| 185 to 187 | COc1cnc(-c2cccn3nc(Nc4ccc(C5CCN(CC(=O)N(C)C)CC5)cc4)nc23)cn1 |

| melting point [°C] | SMILES |
| --- | --- |
| 79 to 80 | COc1cc(COC(C)=O)c(COC(C)=O)cc1OCCCl |
| 192 to 194 | CS(=O)(=O)c1ccc(-c2nn(CC#N)c(C(F)(F)F)c2-c2ccc(F)cc2)cc1 |
| 161 to 163 | CC(C)(C)CCNC(=O)CN1C(=O)C2(COc3cc4c(cc32)CCO4)c2ccccc21 (centres undefined) |
| 119 to 121 | CCCCc1sc(C(N)=O)c2c1-c1c(cnn1C)CC2 |
| 153 to 154 | NS(=O)(=O)c1cc(Br)ccc1F |
| 124 | CC(C)(C)OC(=O)NCC(=O)OCCCNc1ccc(O)c2c1C(=O)c1ccccc1C2=O |
| 108 to 109 | CCSc1ccc(-c2coc3ccc(-c4nnc(C)o4)cc23)c(Cl)c1 |
| 182 to 184 | Cn1cc(C(=O)c2ccnc(Cl)c2)cc1C(=O)c1ccc(Cl)cc1 |
| 89.8 | Cc1cccc(C(C)(C)C)c1-n1sc(=O)n(Cc2ccccc2)c1=O |
| 118 to 120 | Cc1noc(CC(=O)Nc2ccccc2Cl)n1 |
| 136 to 137 | OC1CCSC(=S)N1c1ccc(Cl)cn1 (centres undefined) |
| 97 to 100 | CCNC(C)CN1CCc2c(c(=O)oc3cc(OC)ccc23)C1 (centres undefined) |
| 105 to 106 | CN(C)C=Cc1ncc([N+](=O)[O-])n1CCN1CCOCC1 |
| 70 to 71 | O=C(CCCN1CCCCC1)c1ccc2oc3ccc(C(=O)CCCN4CCCCC4)cc3c2c1 |
| 131 to 132 | CS(=O)(=O)c1ccc(-c2cnn(CCC(F)=C(F)F)c(=O)c2-c2ccc(F)cc2)cc1 |
| 208 to 215 | C#CCCCCC(=O)Nc1nc2nn(C)cc2c2nc(-c3ccco3)nn12 |
| 87.1 | COCCOC1c2ccn3c(C)c(C)nc3c2NC(c2ccccc2)C1OC(=O)CCCCO[N+](=O)[O-] (centres undefined) |
| 209 to 210 | Cc1ncc([N+](=O)[O-])n1CCN1C(=O)NC(c2ccccc2)(c2ccccc2)C1=O |
| 164 to 167 | CCOC(=O)C(C)(C)c1nsc2ccc(-n3c(=O)cc(C(F)(F)F)n(C)c3=O)cc12 |
| 72 to 74 | COC(=O)c1ccc(Cl)c(C)c1N |
| 226 to 228 | Cc1nc(-c2ccc(O)cc2)[nH]c1Cl |
| 60 to 62 | CCCCOc1ccc(-c2nc(-c3ccccc3Cl)nn2C)c(Cl)c1 |
| 77 to 79 | CCOC(=O)c1ccc(N)c(CNC(C)(C)C)c1 |
| 150 to 152 | CCOCc1nc2c(N)nc3ccccc3c2n1CCCC1(C)OCCO1 |

| SMILES | melting point [°C] |
| --- | --- |
| CCOC(=O)CNCC1CC2c3cccc4[nH]cc(c34)CC2N(C)C1 (centres undefined) | 174 to 176 |
| CSC(=S)N1CC(C)(C)CSC1=Nc1ccccc1C(C)C | 77 to 79 |
| COc1cc(F)c(CNCCc2ccc(O)cc2)cc1O | 160 to 162 |
